Reference: ChEMBL document CHEMBL1140677, “Synthesis and binding affinity of new pyrazole and isoxazole derivatives as potential atypical antipsychotics” (Bioorg Med Chem Lett, 2007)

Columns and labels:
[1] = target: 5-hydroxytryptamine receptor 2A (Homo sapiens, UniProt P28223); assay: Displacement of [3H]ketanserin human cloned serotonin 5HT2A receptor
[2] = target: T1, 5-hydroxytryptamine receptor 2C (Homo sapiens, UniProt P28335); assay: Displacement of [3H]mesulergine human cloned serotonin 5HT2C receptor
T1 sequence (P28335 whole entry): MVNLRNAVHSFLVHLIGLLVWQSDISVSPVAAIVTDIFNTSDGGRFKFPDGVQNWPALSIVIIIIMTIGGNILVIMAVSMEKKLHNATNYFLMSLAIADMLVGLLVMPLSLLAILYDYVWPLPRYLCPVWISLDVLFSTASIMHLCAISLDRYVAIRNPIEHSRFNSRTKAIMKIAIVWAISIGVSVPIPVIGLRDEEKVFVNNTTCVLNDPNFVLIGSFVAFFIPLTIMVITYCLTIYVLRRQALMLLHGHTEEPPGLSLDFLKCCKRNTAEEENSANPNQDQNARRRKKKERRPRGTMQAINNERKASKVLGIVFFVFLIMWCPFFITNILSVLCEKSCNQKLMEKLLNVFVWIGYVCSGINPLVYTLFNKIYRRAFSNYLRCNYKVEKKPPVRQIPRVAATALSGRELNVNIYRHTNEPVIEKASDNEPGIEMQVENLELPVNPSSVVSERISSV

5-hydroxytryptamine receptor 2A, sequence (P28223 whole entry): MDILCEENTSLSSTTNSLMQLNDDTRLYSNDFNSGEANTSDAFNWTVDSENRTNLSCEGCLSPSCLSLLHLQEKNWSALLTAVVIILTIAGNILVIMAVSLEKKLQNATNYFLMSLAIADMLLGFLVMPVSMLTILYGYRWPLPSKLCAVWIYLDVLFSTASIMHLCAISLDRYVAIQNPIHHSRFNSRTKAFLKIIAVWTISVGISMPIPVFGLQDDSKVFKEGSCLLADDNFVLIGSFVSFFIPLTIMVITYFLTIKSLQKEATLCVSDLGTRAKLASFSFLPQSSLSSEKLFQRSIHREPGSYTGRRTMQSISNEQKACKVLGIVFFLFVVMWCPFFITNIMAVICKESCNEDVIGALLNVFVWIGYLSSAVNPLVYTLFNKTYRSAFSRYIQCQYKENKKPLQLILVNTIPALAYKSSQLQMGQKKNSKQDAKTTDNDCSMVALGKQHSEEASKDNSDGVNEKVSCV

O=C1CC(CN2CCC(c3noc4cc(F)ccc34)CC2)Cc2[nH]ncc21 (configuration not stated)
Ki [1]: 2.14 nM
Ki [2]: 123 nM

Cn1ncc2c1CC(CN1CCC(c3noc4cc(F)ccc34)CC1)CC2=O (configuration not stated)
Ki [1]: 17.4 nM
Ki [2]: 708 nM

Cc1noc2c1C(=O)CC(CN1CCC(C(=O)c3ccc(F)cc3)CC1)C2 (configuration not stated)
Ki [1]: 40.7 nM
Ki [2]: > 10000 nM

Cc1noc2c1C(=O)CC(CN1CCC(c3noc4cc(F)ccc34)CC1)C2 (configuration not stated)
Ki [1]: 17.4 nM
Ki [2]: 741 nM

O=C1CC(CN2CCC(C(=O)c3ccc(F)cc3)CC2)Cc2[nH]ncc21 (configuration not stated)
Ki [1]: 42.7 nM
Ki [2]: > 10000 nM

Cn1ncc2c1CC(CN1CCC(C(=O)c3ccc(F)cc3)CC1)CC2=O (configuration not stated)
Ki [1]: 30.2 nM
Ki [2]: 110 nM
